The record followed here is patent EP4570802A1, “SALT TYPE AND CRYSTAL FORM OF BENZAZEPINE FUSED RING COMPOUND AND USE THEREOF” (SHANGHAI JEYOU PHARMACEUTICAL CO., LTD., priority 2022, dated 2024).

Where a name gives a salt, the structure may show the parent alone.

What all share (assay type): physicochemical
Data set [1] can be described thus: Dynamic vapor sorption analysis (DVS). As to the method:
Dynamic vapor sorption analysis was performed using DVS Intrinsic (SMS, UK). The test was performed in gradient mode with a humidity change of 50%-95%-0%-50%, and 10% humidity change per gradient in the range of 0% to 90%. The gradient endpoint was determined by dm/dt, and was defined as when dm/dt was less than 0.002% and maintained for 10 minutes. After the test was completed, the sample was analyzed by XRPD to confirm whether the solid morphology had changed.

Data set [2] can be described thus: Solubility test in biological media (dynamic solubility in FaSSIF, FeSSIF, FaSSGF; pH of the 24-hour supernatant; XRPD of remaining solid). Particulars: listed as Crystal form A of maleate; for Final pH: 24-hour supernatant; for Solubility (mg/mL) 0.5 h: 30 min; for Solubility (mg/mL) 2h: 120 min; for Solubility (mg/mL) 24 h: 1440 min; for XRPD for remaining solid: remaining solid after 24 hours. The procedure: Samples of different crystal forms were added to biological media and shaken at a constant temperature of 37°C for 24 hours, followed by sampling at 0.5 hours, 2 hours, and 24 hours, respectively, and the sampled solution was filtered using a 0.22 µm hydrophilic filter membrane. Some of the samples with higher concentrations were appropriately diluted with a diluent, and the signal peak area of the solution was measured by HPLC. Finally, the concentration of the compound in the solution was calculated based on the peak area, the HPLC standard curve of the starting material, and the dilution factor. In addition, the 24-hour supernatant was tested for pH, and the remaining solid was subjected to XRPD testing.

Data set [3] is described as follows: Stability study (solid state, XRPD characterization after 7 days and 15 days). Particulars: high temperature (60°C), high humidity (25°C/92.5% RH), light (25°C/4500 Lux) and accelerated (40°C/75% RH) conditions, 15 days. The procedure:
Approximately 20 mg of sample was weighed into a weighing bottle and exposed to high temperature (60°C), high humidity (25°C/92.5% RH), light (25°C/4500 Lux), and accelerated (40°C/75% RH) conditions, followed by sampling for XRPD characterization after 7 days and 15 days.
Samples were taken for XRPD characterization after 7 days and 15 days. 62 to 65. […]

With `O=C(Nc1ccc(C(=O)N2CC[C@@H]3CCN[C@H]3c3cc(Cl)ccc32)cn1)c1ccccc1C(F)(F)F` [crystal form A of maleate], in data set [1] (DVS, at 0% RH), the weight loss was determined as 0.24%. Further, the weight gain in data set [1] (DVS, at 80% RH) is 0.09%; in data set [1] (DVS, at 95% RH), 0.23%. Further, in data set [1] (conclusion from DVS), the hygroscopicity entry is reported as “almost no hygroscopicity”. Also, the “XRPD after DVS testing” value in data set [1] (solid form after DVS testing) is given as “no morphological change”. For the same compound, the “Final pH” value stood at 1.7 in data set [2] (FaSSGF), 6.1 in data set [2] (FaSSIF) and 5.0 in data set [2] (FeSSIF). The “Solubility (mg/mL) 0.5 h” value is listed as 1.44 mg/mL in data set [2] (FaSSGF, pH 1.6, 37°C); 0.66 mg/mL in data set [2] (FaSSIF, pH 6.5, 37°C); 1.08 mg/mL in data set [2] (FeSSIF, pH 5.0-5.1, 37°C). Moreover, the “Solubility (mg/mL) 2h” value in data set [2] (FaSSGF, pH 1.6, 37°C) was 1.43 mg/mL; in data set [2] (FaSSIF, pH 6.5, 37°C), 0.69 mg/mL; in data set [2] (FeSSIF, pH 5.0-5.1, 37°C), 1.28 mg/mL. For the same compound, the “Solubility (mg/mL) 24 h” value came to 1.02 mg/mL in data set [2] (FaSSGF, pH 1.6, 37°C); 0.57 mg/mL in data set [2] (FaSSIF, pH 6.5, 37°C); 0.31 mg/mL in data set [2] (FeSSIF, pH 5.0-5.1, 37°C). The “XRPD for remaining solid” value in data set [2] (FaSSGF) is “Crystal form A of maleate + new peak”; in data set [2] (FaSSIF), “Obvious change”; in data set [2] (FeSSIF), “Obvious change”. In addition, the “stability (crystal transformation by XRPD)” value in data set [3] is “stable”.
